These results are taken from PMC8532448, “Drug target inference by mining transcriptional data using a novel graph convolutional network framework” (Protein & Cell, 2021).

One may read the Kd as the concentration at which binding is half-saturated.

The assay concerns the target Cyclophilin A (CYPA, PPIA) (Homo sapiens, UniProt P62937). Put plainly: SPR with purified CYPA; also protein thermal shift (destabilization) and chymotrypsin-coupled PPIase inhibition. The assay is classed as binding.

Cyclophilin A (CYPA, PPIA), sequence (P62937 whole entry): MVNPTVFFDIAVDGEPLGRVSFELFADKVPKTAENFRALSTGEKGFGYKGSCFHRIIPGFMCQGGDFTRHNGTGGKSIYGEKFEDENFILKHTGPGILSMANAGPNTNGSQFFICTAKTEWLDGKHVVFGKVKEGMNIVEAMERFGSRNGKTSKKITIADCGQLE

Turning to `Cc1c(O)cccc1C(=O)N[C@@H](CSc1ccccc1)[C@H](O)CN1C[C@H]2CCCC[C@H]2C[C@H]1C(=O)NC(C)(C)C` [NFV, Nelfinavir], the Kd came to 940 nM.
